“Also recorded” adds a separate entry of the source.
Legend:
[1] = system: human iPSC-derived MACS-sorted CD34+ cells; experiment: Hematopoietic CFU assays of human iPSC-derived MACS-sorted CD34+ cells; format: cell-based; conditions: 20,000 hCD34+ cells per sample
Procedure: Embryoid body and hemogenic endothelium differentiation was performed as described in (Sugimura et al. 2017; Ditadi et al. 2015). Briefly, hiPSC colonies were dissociated with 0.05% trypsin for 5 min at 37° C., washed with PBS+2% FBS, and resuspended in StemPro-34 (Invitrogen, 10639-011) supplemented with L-glutamine (2 mM), penicillin/streptomycin ([…]), ascorbic acid (1 mM), human holo-Transferrin ([…], Sigma T0665), monothioglycerol (MTG, 0.4 mM), BMP4 (10 ng/ml), and Y-27632 (10 μM). Five million cells were seeded into 10 cm dishes (Ezsphere, Asahi Glass) for the spheroid formation. On Day 1, bFGF (5 ng/ml) and BMP4 (10 ng/ml) was added to the medium. On Day 2, the media was changed with the StemPro-34 supplemented with SB431542 (6 μM), CHIR99021 (3 μM), bFGF (5 ng/ml), and BMP4 (10 ng/ml). On Day 3, the medium was replaced with StemPro-34 supplemented with VEGF (15 ng/ml) and bFGF (10 ng/ml). On day 6, the medium was changed to StemPro-34 supplemented with bFGF (5 ng/ml), VEGF (15 ng/ml), interleukin (IL)-6 (10 ng/ml), IGF-1 (25 ng/ml), IL-11 (5 ng/ml), SCF (50 ng/ml) and EPO (2IU). The cells were maintained in a 5% CO2, 5% O2 and 95% humidity incubator. All cytokines were purchased from Peprotech. […]

[2] = system: human iPSC-derived hemogenic endothelial cells; experiment: Yoda1 treatment of human iPSC-derived hemogenic endothelial cells: EHT and gene expression; format: cell-based
Text: To determine the role of Dnmt3b in the EHT, we analyzed the endothelial and hematopoietic gene expression levels using whole transcriptome analyses. […] To consolidate our findings, we further independently measured the transcript levels of endothelial and hematopoietic genes. […] In summary, pulsation-mediated Piezo1 activation enhances Dnmt3b expression to repress endothelial genes, stimulating the endothelial-to-HSC transition. To analyze the conserved role of PIEZO1-mediated mechanosensitive mechanisms in human hematopoiesis, we employed directed differentiation of constitutive RUNX1c:tdTomato human induced pluripotent stem cells (iPSCs) to hemogenic endothelial cells, and treated such hemogenic endothelial cells with Yoda1.
Embryoid body and hemogenic endothelium differentiation was performed as described in (Sugimura et al. 2017; Ditadi et al. 2015). Briefly, hiPSC colonies were dissociated with 0.05% trypsin for 5 min at 37° C., washed with PBS+2% FBS, and resuspended in StemPro-34 (Invitrogen, 10639-011) supplemented with L-glutamine (2 mM), penicillin/streptomycin ([…]), ascorbic acid (1 mM), human holo-Transferrin ([…], Sigma T0665), monothioglycerol (MTG, 0.4 mM), BMP4 (10 ng/ml), and Y-27632 (10 μM). Five million cells were seeded into 10 cm dishes (Ezsphere, Asahi Glass) for the spheroid formation. On Day 1, bFGF (5 ng/ml) and BMP4 (10 ng/ml) was added to the medium. On Day 2, the media was changed with the StemPro-34 supplemented with SB431542 (6 μM), CHIR99021 (3 μM), bFGF (5 ng/ml), and BMP4 (10 ng/ml). On Day 3, the medium was replaced with StemPro-34 supplemented with VEGF (15 ng/ml) and bFGF (10 ng/ml). On day 6, the medium was changed to StemPro-34 supplemented with bFGF (5 ng/ml), VEGF (15 ng/ml), interleukin (IL)-6 (10 ng/ml), IGF-1 (25 ng/ml), IL-11 (5 ng/ml), SCF (50 ng/ml) and EPO (2IU). The cells were maintained in a 5% CO2, 5% O2 and 95% humidity incubator. All cytokines were purchased from Peprotech.

[3] = system: cd41:eGFP+ HSCs emerging from flk1:mCherry+ endothelial cells; experiment: Time-lapse confocal imaging of cd41:eGFP+ HSCs emerging from flk1:mCherry+ endothelial cells in transgenic embryos; format: in vivo, zebrafish; conditions: 26-42 hpf
Procedure: Mice were purchased Cd45.2 (C57BL6/J) and Cd45.1 (SJL) from The Jackson Laboratory and zebrafish morpholinos from GeneTools. Microangiography was performed by injecting fluorescent-labeled dextran dye in the atrium of zebrafish heart and its passage was recorded using live imaging. Immunostaining of zebrafish heart and mouse AGM were analyzed using an inverted fluorescent microscope. Cardiac tamponade, heart rate, and pulse frequency were analyzed in zebrafish embryos using bright field imaging or time-lapse confocal microscopy. The movement of red blood cells in blood vessels was analyzed as well as the endothelial-to-HSC transition in zebrafish transgenic embryos using time-lapse confocal imaging.
Zebrafish embryos were treated with the following chemical modulators in E3 fish media: 100 uM L-NAME (Fisher Scientific), 50 uM Digitoxigenin (Sigma), 25-50 uM Yoda1 (Cayman Chemical), 1 uM Nanaomycin (Nana; Fisher Scientific), 100 uM Gadolinium chloride (GdCl3; Sigma), 5-10 uM 4α-phorbol 12, 13-didecanaote (4Apdd; Sigma), or GSK205 (10 uM).
cd41:eGFP were crossed with flk1:mCherry zebrafish and flk1:mCherry with lcr:eGFP zebrafish and injected morpholino in their transgenic embryos. […] The relative movement of lcr:eGFP^+ red blood cells was analyzed in the context of flk1:mCherry^+ endothelium. We performed image analysis using Imaris (Bitplane) software.

[4] = human iPSC-derived hemogenic endothelial cells

Clc1cccc(Cl)c1CSc1nnc(-c2cnccn2)s1 [Yoda1, 2-[5-[[(2,6-Dichlorophenyl)methyl]thio]-1,3,4-thiadiazol-2-yl]-pyrazine]
multipotent GEMM progenitor formation [1]: elevated multipotent hematopoietic progenitor formation and human hematopoiesis; also recorded: stimulates multipotent GEMM progenitor formation and human hematopoiesis
human endothelial-to-hematopoietic transition ([2]; RUNX1c:tdTomato human iPSC-derived hemogenic endothelial cells): stimulated the human endothelial-to-hematopoietic transition
DNMT3A expression [2, 4]: not DNMT3A expression
DNMT3B expression [2, 4]: enhanced DNMT3B expression
expression of endothelial genes (VEGFA, HEY2, GPR116, GNA13, CDH5, PLXND1) [2, 4]: silenced endothelial genes
expression of hematopoietic genes (RUNX1, SPI1, CEBPA, TAL1, GATA2) [2, 4]: induced the expression of hematopoietic genes
HSC formation (endothelial-to-HSC transition) ([3]; control embryos): stimulates HSC formation in control embryos
HSC formation (endothelial-to-HSC transition) ([3]; sih-MO embryos): rescues HSC formation in sih-MO embryos

Reference: patent US20230041065A1, “METHODS FOR GENERATING HEMATOPOIETIC STEM CELLS” (The Brigham and Women`s Hospital, Inc., priority 2019, published 2023)
